Reference: patent publication US20030054185A1, “Biocidal controlled-release formulations” (CREAVIS GESELLSCHAFT F. TECHN.U.INNOVATION MBH, priority 2001, published 2003)

Experiments:
Pseudomonas aeruginosa = assay: test microbial suspension shaken with aqueous extract, number of microbes determined; assay type: cell-based; details: contact time of 4 hours, starting number 10^7, 2 mL of 24 h water extract (37° C.) in 20 mL suspension (solvent control: 0.5 mL neat)
Experimental: The supernatant liquor is then filtered through a 0.2 micrometer pore filter. 2 mL of this solution are shaken with 20 mL of a test microbial suspension of Pseudomonas aeruginosa. […] The solvent is removed at 35° C. over a period of 48 hours in a drying cabinet, so that a polymer film remains on the base of the glass beaker. This film is extracted for 24 hours with 200 mL of water heated to 37° C. 2 mL of this solution are shaken with 20 mL of a test microbial suspension of Pseudomonas aeruginosa. […] Over a period of 14 days, the film is extracted as described above, each time for 24 hours, with 200 mL of water heated to 37° C., and the water is then subjected to microbiological testing. All of the determinations show a fall of from 4 to 5 logarithmic levels in the number of microbes. […] The solvent is removed over a period of 48 hours at 35° C. in a drying cabinet, so that a polymer film remains on the base of the glass beaker. The film is then dried for 24 hours at 5 mbar at 50° C. in a vacuum drying cabinet. This film is extracted for 24 hours with 200 mL of water heated to 37° C. 2 mL of this solution are shaken with 20 mL of a test microbial suspension of Pseudomonas aeruginosa. […] The solvent is removed over a period of 48 hours at 35° C. in a drying cabinet so that a polymer film remains on the base of the glass beaker. […]

Staphylococcus aureus = assay: as above; assay type: cell-based; details: contact time of 4 hours, starting number 10^7, 2 mL of 24 h water extract (37° C.) in 20 mL suspension (solvent control: 0.5 mL neat)
Experimental: 2 mL of this solution are shaken with 20 mL of a test microbial suspension of Staphylococcus aureus. After a contact time of 4 hours, 1 mL of the test microbial suspension is removed, and the number of microbes in the test mixture is determined.
This film is extracted for 24 hours with 200 mL of water heated to 37° C. 2 mL of this solution are shaken with 20 mL of a test microbial suspension of Staphylococcus aureus. After a contact time of 4 hours, 1 mL of the test microbial suspension is removed, and the number of microbes in the test mixture is determined. […] Over a period of 14 days, the film is extracted as described above, each time for 24 hours, with 200 mL of water heated to 37° C., and the water is then subjected to microbiological testing.
This film is extracted for 24 hours with 200 mL of water heated to 37° C. 2 mL of this solution are shaken with 20 mL of a test microbial suspension of Staphylococcus aureus. After a contact time of 4 hours, 1 mL of the test microbial suspension is removed, and the number of microbes in the test mixture is determined.

SMILES	number of microbes in the test mixture (Pseudomonas aeruginosa)	number of microbes in the test mixture (Staphylococcus aureus)
C1CCCCC1 [cyclohexane]	10^7 microbes per mL	–
CCO [ethanol]	–	10^7 microbes per mL
